We go through nine compounds from ChEMBL document CHEMBL4342421, “Current scenario of tetrazole hybrids for antibacterial activity” (Eur J Med Chem, 2019).

Test [1] deals with Escherichia coli. Briefly: Antimicrobial activity against Escherichia coli assessed as zone of inhibition at 5 mg/ml. Type of test: functional. Particulars: read-out: IZ.
Test [2] has as its system Staphylococcus aureus. Briefly: Antimicrobial activity against Staphylococcus aureus assessed as zone of inhibition at 5 mg/ml. It is filed as functional. Particulars: read-out: IZ.
Test [3] relates to Pseudomonas aeruginosa. Briefly: Antimicrobial activity against Pseudomonas aeruginosa assessed as zone of inhibition at 5 mg/ml. Particulars: read-out: IZ. It is filed as functional.
The test system of test [4] is Klebsiella pneumoniae. Briefly: Antimicrobial activity against Klebsiella pneumoniae assessed as zone of inhibition at 5 mg/ml. As to conditions: read-out: IZ. Type of test: functional.
The subject of the next test is Pseudomonas. Briefly: Antimicrobial activity against Pseudomonas assessed as zone of inhibition at 10 ug/ml. It is filed as functional. Particulars: read-out: IZ.
Another test has as its system Streptomyces. The experiment in a line: Antimicrobial activity against Streptomyces assessed as zone of inhibition at 10 ug/ml. It is filed as functional. Particulars: read-out: IZ.
Test [5] relates to Escherichia coli. The experiment in a line: Antimicrobial activity against Escherichia coli assessed as zone of inhibition at 10 ug/ml. Type of test: functional. Particulars: read-out: IZ.
Test [6] relates to Candida albicans. Briefly: Antifungal activity against Candida albicans assessed as zone of inhibition at 10 ug/ml. It is filed as functional. As to conditions: read-out: IZ.
The subject of test [7] is Aspergillus niger. The experiment in a line: Antifungal activity against Aspergillus niger assessed as zone of inhibition at 10 ug/ml. Type of test: functional. As to conditions: read-out: IZ.
Another test has as its system Penicillium. Briefly: Antifungal activity against Penicillium assessed as zone of inhibition at 10 ug/ml. Type of test: functional. Particulars: read-out: IZ.
In another test the test system is Lactococcus lactis. Briefly: Antimicrobial activity against Streptococcus lactis assessed as zone of inhibition at 10 ug/ml. Type of test: functional. As to conditions: read-out: IZ.
For test [8], the system named is Bacillus subtilis. The experiment in a line: Antimicrobial activity against Bacillus subtilis assessed as zone of inhibition at 10 ug/ml. It is filed as functional. Particulars: read-out: IZ.
Test [9] in a line: Antifungal activity against Rhodotorula ingeniosa assessed as zone of inhibition at 10 ug/ml. It is filed as functional. As to conditions: Sampaiozyma ingeniosa; read-out: IZ.
The subject of test [10] is Escherichia coli. The experiment in a line: Antimicrobial activity against Escherichia coli assessed as zone of inhibition at 250 ug/ml after 24 hrs by disk diffusion method. It is filed as functional. Particulars: read-out: IZ. (Agar diffusion results depend on both activity and mobility in agar.)
Test [11] has as its system Staphylococcus aureus. The experiment in a line: Antimicrobial activity against Staphylococcus aureus. Type of test: functional.
Test [12] deals with Candida albicans. Briefly: Antifungal activity against Candida albicans assessed as zone of inhibition at 250 ug/ml. Particulars: read-out: IZ. It is filed as functional.
The test system of test [13] is Escherichia coli. Briefly: Antimicrobial activity against Escherichia coli assessed as zone of inhibition at 250 ug/ml. It is filed as functional. As to conditions: read-out: IZ.
Test [14] concerns Aspergillus niger. Briefly: Antifungal activity against Aspergillus niger. Type of test: functional.
Test [15] has as its system Bacillus cereus. The experiment in a line: Antimicrobial activity against Bacillus cereus assessed as zone of inhibition at 250 ug/ml. Type of test: functional. Particulars: read-out: IZ.
For test [16], the system named is Aspergillus niger. The experiment in a line: Antifungal activity against Aspergillus niger assessed as zone of inhibition at 250 ug/ml. It is filed as functional. As to conditions: read-out: IZ.
For test [17], the system named is Pseudomonas aeruginosa. Briefly: Antimicrobial activity against Pseudomonas aeruginosa assessed as zone of inhibition at 250 ug/ml. It is filed as functional. As to conditions: read-out: IZ.
Test [18] deals with Pseudomonas aeruginosa. The experiment in a line: Antimicrobial activity against Pseudomonas aeruginosa. It is filed as functional.
For test [19], the system named is Bacillus cereus. The experiment in a line: Antimicrobial activity against Bacillus cereus. It is filed as functional.
Test [20] has as its system Escherichia coli. The experiment in a line: Antimicrobial activity against Escherichia coli. Type of test: functional.
Test [21] concerns Staphylococcus aureus. Briefly: Antimicrobial activity against Staphylococcus aureus assessed as zone of inhibition at 250 ug/ml. Type of test: functional. As to conditions: read-out: IZ.
Test [22] deals with Candida albicans. Briefly: Antifungal activity against Candida albicans. It is filed as functional.
The next test has as its system Salmonella typhimurium. Briefly: Antimicrobial activity against Salmonella typhimurium. Particulars: Salmonella enterica. Type of test: functional, Salmonella enterica subsp. enterica serovar Typhimurium.
The subject of the next test is Proteus mirabilis. Briefly: Antimicrobial activity against Proteus mirabilis. It is filed as functional.
Another test deals with Prescottella equi. The experiment in a line: Antimicrobial activity against Rhodococcus equi. Particulars: Rhodococcus (subgen. Prescottella) equi. Type of test: functional.
Test [23] has as its system Bacillus subtilis. The experiment in a line: Antimicrobial activity against Bacillus subtilis. It is filed as functional.
Another test concerns Streptococcus pneumoniae. The experiment in a line: Antimicrobial activity against Streptococcus pneumoniae. It is filed as functional.
In another test the test system is Bacillus thuringiensis. Briefly: Antimicrobial activity against Bacillus thuringiensis. It is filed as functional.
Another test concerns Proteus vulgaris. The experiment in a line: Antimicrobial activity against Proteus vulgaris. Type of test: functional.
Test [24] concerns Aspergillus flavus. The experiment in a line: Antifungal activity against Aspergillus flavus. Type of test: functional.
The next test concerns Fusarium oxysporum. Briefly: Antifungal activity against Fusarium oxysporum. It is filed as functional.
The subject of test [25] is Aspergillus flavus. Briefly: Antifungal activity against Aspergillus flavus NCIM 524 after 3 to 4 days. It is filed as functional.
The test system of another test is Aspergillus fumigatus. The experiment in a line: Antifungal activity against Aspergillus fumigatus NCIM 902 after 3 to 4 days. It is filed as functional.
Test [26] deals with Trichophyton mentagrophytes. Briefly: Antifungal activity against Trichophyton mentagrophytes after 3 to 4 days. It is filed as functional.
For test [27], the system named is Klebsiella pneumoniae. Briefly: Antimicrobial activity against Klebsiella pneumoniae after 24 hrs by disc diffusion method. It is filed as functional.
The test system of the next test is Talaromyces marneffei. The experiment in a line: Antifungal activity against Penicillium marneffei after 3 to 4 days. Type of test: functional.
Test [28] has as its system Escherichia coli. The experiment in a line: Antimicrobial activity against Escherichia coli ATCC 25922 after 24 hrs by disc diffusion method. Type of test: functional. As to conditions: ATCC 25922, 24 h.
For test [29], the system named is Pseudomonas aeruginosa. The experiment in a line: Antimicrobial activity against Pseudomonas aeruginosa ATCC 27853 after 24 hrs by disc diffusion method. It is filed as functional. Particulars: ATCC 27853, 24 h.
The test system of test [30] is Staphylococcus aureus. The experiment in a line: Antimicrobial activity against Staphylococcus aureus ATCC 25923 after 24 hrs by disc diffusion method. It is filed as functional. As to conditions: ATCC 25923, 24 h.

Molecules are shown by their SMILES. Converted amounts (≈) assume the structure as drawn.

For `Cc1ccc2nc(C)c(Cn3cc(CSc4nnnn4-c4ccccc4)nn3)cc2c1`, the zone of inhibition at 5000 µg/mL in the test on Escherichia coli [1], in the test on Staphylococcus aureus [2], in the test on Pseudomonas aeruginosa [3] and in the test with Klebsiella pneumoniae [4] was 11 to 19 mm each time.

In the case of `c1ccc2c(c1)nnn2Cc1nnn[nH]1`, the zone of inhibition at 10 µg/mL with Pseudomonas, in the test with Streptomyces, in the test with Escherichia coli [5], with Candida albicans [6], in the test on Aspergillus niger [7] and with Penicillium was 11 to 16 mm throughout. Besides, the zone of inhibition at 10 µg/mL (in the test with Lactococcus lactis; in the test with Bacillus subtilis [8]; in [9]) was 11 to 16 mm in each case.

As to `Clc1ccc(-c2nnnn2-c2nc3ccccc3s2)cc1`, the zone of inhibition at 250 µg/mL fell in the range of 18 to 26 mm in the test with Escherichia coli [10]; 16 to 26 mm in the test with Candida albicans [12]; 16 to 26 mm in the test with Escherichia coli [13]; 16 to 26 mm in the test with Bacillus cereus [15]; 16 to 26 mm in the test with Aspergillus niger [16]; 16 to 26 mm in the test with Pseudomonas aeruginosa [17]. In the test on Staphylococcus aureus [21], the zone of inhibition at 250 µg/mL fell in the range of 16 to 26 mm. In addition, the minimal inhibitory concentration (MIC) against Staphylococcus aureus [11], against Aspergillus niger [14], against Pseudomonas aeruginosa [18], against Bacillus cereus [19], with Escherichia coli [20] and against Candida albicans [22] was 50 to 100 µg/mL (≈ 159 to 319 µM) each time.

In the case of `Cc1ccc2cc(Cn3cc(CSc4nnnn4-c4ccccc4)nn3)c(C)nc2c1`, the zone of inhibition at 5000 µg/mL in the test on Escherichia coli [1], in the test on Staphylococcus aureus [2], in the test with Pseudomonas aeruginosa [3] and in the test on Klebsiella pneumoniae [4] was 11 to 19 mm throughout.

On to `c1ccc(N2CCN(c3ncnc4c3Sc3nnnn3N4)CC2)cc1`, for which the MIC in the test with Salmonella typhimurium, in the test on Proteus mirabilis, against Prescottella equi, against Bacillus subtilis [23], in the test with Streptococcus pneumoniae and in the test on Bacillus thuringiensis was 51 to 410 µg/mL (≈ 144 to 1160 µM) throughout. In addition, in the test with Proteus vulgaris, the minimum inhibitory concentration (MIC) (usually the lowest concentration found to suppress growth) is 51 to 410 µg/mL (≈ 144 to 1160 µM).

Consider `c1ccc(-n2cc(-c3nnn[nH]3)nn2)cc1`, for which the minimal inhibitory concentration (MIC) with Aspergillus niger [14], in the test with Aspergillus flavus [24] and in the test on Fusarium oxysporum was 100 µg/mL (≈ 469 µM) throughout.

Turning to `Clc1ccc(-n2cc(-c3nnn[nH]3)nn2)cc1`, the MIC against Aspergillus niger [14], in the test on Aspergillus flavus [24] and with Fusarium oxysporum was 100 µg/mL (≈ 404 µM) in each case.

`O=[N+]([O-])c1ccc(-c2nnnn2-c2nc3ccccc3s2)cc1`: the zone of inhibition at 250 µg/mL with Escherichia coli [10] lay in the range of 18 to 26 mm; with Candida albicans [12], 16 to 26 mm; in the test on Escherichia coli [13] it was 16 to 26 mm; in the test with Bacillus cereus [15], 16 to 26 mm; in the test on Aspergillus niger [16], 16 to 26 mm; in the test on Pseudomonas aeruginosa [17], 16 to 26 mm. Besides, in the test on Staphylococcus aureus [21], the zone of inhibition at 250 µg/mL is 16 to 26 mm. The MIC against Staphylococcus aureus [11], in the test on Aspergillus niger [14], against Pseudomonas aeruginosa [18], against Bacillus cereus [19], in the test on Escherichia coli [20] and with Candida albicans [22] was 50 to 100 µg/mL (≈ 154 to 308 µM) in each case.

With `CCn1nnnc1SCCCSc1nnnn1-c1ccccc1`, the MIC (against Aspergillus flavus [25]; in the test on Aspergillus fumigatus; in test [26]; against Klebsiella pneumoniae [27]; in the test on Talaromyces marneffei; with Escherichia coli [28]) was 6.25 to 50 µg/mL (≈ 17.9 to 143 µM) throughout. In addition, the minimal inhibitory concentration (MIC) in the test with Pseudomonas aeruginosa [29] and in the test on Staphylococcus aureus [30] was 6.25 to 50 µg/mL (≈ 17.9 to 143 µM) throughout.
